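Values below derive from 48-hour exposures of cells grown in 96-well plates, with endpoints linearly interpolated between the two concentrations bracketing the appropriate inhibition level. Abbreviation: GI50, concentration required for 50% inhibition of growth.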 Active and inactive are the calls of the source. No stated cut-off is given here; in the data, active = GI50 up to about 1.1 µM and inactive = higher.
Experiments:
Assay in all cases: NCI-60 cell line screen, 48 h
[1] = test system: UACC-257
[2] = test system: T47D
[3] = test system: OVCAR-8
[4] = test system: SN12C
[5] = test system: NCI-H460
[6] = test system: LOX IMVI
[7] = test system: 786-0
[8] = test system: EKVX
[9] = test system: SNB-75
[10] = test system: ACHN
[11] = test system: MCF7
[12] = test system: UO-31
[13] = test system: RXF 393
[14] = test system: HOP-62
[15] = test system: SK-OV-3
[16] = test system: IGROV-1
[17] = test system: MOLT-4
[18] = test system: COLO 205
[19] = test system: SW-620
[20] = test system: DU-145

COc1cc(/C=N/N=C2NCCCN2)ccc1O
GI50 [1]: > 100 µM (inactive)
GI50 [2]: > 100 µM (inactive)
GI50 [3]: > 100 µM (inactive)
GI50 [4]: > 100 µM (inactive)
GI50 [5]: 82.8 µM (inactive)
GI50 [6]: > 100 µM (inactive)
GI50 [7]: > 100 µM (inactive)
GI50 [8]: > 100 µM (inactive)
GI50 [9]: 30.3 µM (inactive)
GI50 [10]: > 100 µM (inactive)
GI50 [11]: > 100 µM (inactive)
GI50 [12]: > 100 µM (inactive)
GI50 [13]: > 100 µM (inactive)
GI50 [14]: > 100 µM (inactive)
GI50 [15]: > 100 µM (inactive)
GI50 [16]: > 100 µM (inactive)
GI50 [17]: > 100 µM (inactive)
GI50 [18]: > 100 µM (inactive)
GI50 [19]: > 100 µM (inactive)
GI50 [20]: > 100 µM (inactive)

Cc1sc(N/N=C2\C(=O)Nc3ccccc32)nc1-c1ccccc1
GI50 [1]: 21.4 µM (inactive)
GI50 [2]: 13.6 µM (inactive)
GI50 [3]: 17.5 µM (inactive)
GI50 [4]: 12.1 µM (inactive)
GI50 [5]: 10.2 µM (inactive)
GI50 [6]: 12.6 µM (inactive)
GI50 [7]: 17.4 µM (inactive)
GI50 [8]: 11.1 µM (inactive)
GI50 [9]: 19.7 µM (inactive)
GI50 [10]: 15.3 µM (inactive)
GI50 [11]: 15.3 µM (inactive)
GI50 [12]: 13.6 µM (inactive)
GI50 [13]: 15.8 µM (inactive)
GI50 [14]: 12 µM (inactive)
GI50 [15]: 14.9 µM (inactive)
GI50 [16]: 9.48 µM (inactive)
GI50 [17]: 12.6 µM (inactive)
GI50 [18]: 13.4 µM (inactive)
GI50 [19]: 23.6 µM (inactive)
GI50 [20]: 11.6 µM (inactive)

CC(C)(C)c1ccc2c(c1)C(=O)c1ccccc1C2=O
GI50 [1]: 40.2 µM (inactive)
GI50 [2]: > 100 µM (inactive)
GI50 [3]: 44.5 µM (inactive)
GI50 [4]: 85.3 µM (inactive)
GI50 [5]: 31.3 µM (inactive)
GI50 [6]: 41.4 µM (inactive)
GI50 [7]: > 100 µM (inactive)
GI50 [8]: 19 µM (inactive)
GI50 [9]: 16.2 µM (inactive)
GI50 [10]: 37.9 µM (inactive)
GI50 [11]: 20.6 µM (inactive)
GI50 [12]: > 100 µM (inactive)
GI50 [13]: 26.1 µM (inactive)
GI50 [14]: > 100 µM (inactive)
GI50 [15]: > 100 µM (inactive)
GI50 [16]: 33 µM (inactive)
GI50 [17]: 24.6 µM (inactive)
GI50 [18]: 25 µM (inactive)
GI50 [19]: > 100 µM (inactive)
GI50 [20]: > 100 µM (inactive)

Cn1cc(-c2cnc(-c3cn(C)c4ccccc34)cn2)c2ccccc21
GI50 [1]: 16 µM (inactive)
GI50 [2]: 44.8 µM (inactive)
GI50 [3]: 4.89 µM (inactive)
GI50 [4]: 8.85 µM (inactive)
GI50 [5]: 4.51 µM (inactive)
GI50 [6]: 5.2 µM (inactive)
GI50 [7]: 4.6 µM (inactive)
GI50 [8]: 10.1 µM (inactive)
GI50 [9]: 2.77 µM (inactive)
GI50 [10]: 5.83 µM (inactive)
GI50 [11]: 0.194 µM (active)
GI50 [12]: 4.79 µM (inactive)
GI50 [13]: 3.25 µM (inactive)
GI50 [14]: 6.59 µM (inactive)
GI50 [15]: 14.6 µM (inactive)
GI50 [16]: 3.8 µM (inactive)
GI50 [17]: 5.66 µM (inactive)
GI50 [18]: 3.26 µM (inactive)
GI50 [19]: 3.19 µM (inactive)
GI50 [20]: 5.27 µM (inactive)

Reference: ChEMBL document CHEMBL1201862, “PubChem BioAssay data set” (2004)
